The values that follow come from patent EP0923576B1, “4-AMINOETHOXY-INDOLONE DERIVATIVES AS DOPAMINE D2 AGONISTS” (Wyeth, priority 1996, dated 1998).

One assay has as its target T1, dopamine D-2 receptor (Rattus norvegicus, UniProt P61169).
T1 construct: homogenized limbic brain tissue is incubated with ^3H-spiroperidol; from tissue
The assay can be described thus: 3H-spiroperidol binding, affinity for the dopamine D-2 receptor in homogenized limbic brain tissue. To be noted: for Ratio: ratio IC50 D2 Spiper / IC50 D2 Quin. (LowAg/HighAg), predicts intrinsic activity; for IC50: read-out: IC50 (nM) D2 Spiper.

For another assay, the target named is dopamine autoreceptor (Rattus norvegicus, UniProt P61169). The assay can be described thus: 3H-quinpirole binding, affinity for the dopamine autoreceptor in homogenized striatal brain tissue.
Sequence of dopamine autoreceptor (P61169 whole entry): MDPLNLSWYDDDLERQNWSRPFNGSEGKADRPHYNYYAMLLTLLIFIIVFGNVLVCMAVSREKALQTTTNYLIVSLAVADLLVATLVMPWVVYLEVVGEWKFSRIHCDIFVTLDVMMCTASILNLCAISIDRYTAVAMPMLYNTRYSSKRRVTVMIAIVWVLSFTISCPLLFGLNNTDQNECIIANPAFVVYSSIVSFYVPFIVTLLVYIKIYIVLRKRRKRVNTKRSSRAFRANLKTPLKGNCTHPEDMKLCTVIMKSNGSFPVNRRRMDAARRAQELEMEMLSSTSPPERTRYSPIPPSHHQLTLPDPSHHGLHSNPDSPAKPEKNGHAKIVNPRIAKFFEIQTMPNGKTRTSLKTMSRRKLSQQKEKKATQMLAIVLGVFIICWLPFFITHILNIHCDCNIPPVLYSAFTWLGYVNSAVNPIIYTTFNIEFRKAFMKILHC

As a reminder, the IC50 is the concentration that gives 50% inhibition.

T1 sequence (P61169 whole entry): as above
Experimental for dopamine autoreceptor: Affinity for the dopamine autoreceptor was established by a modification of the standard experimental test procedure of Seemen and Schaus, European Journal of Pharmacology 203, 105-109 (1991), wherein homogenized rat striatal brain tissue is incubated with ^3H-quinpirole (Quin.)and various concentrations of test compound, filtered and washed and counted in a Betaplate scintillation counter.

Regarding `CSC1C(=O)Nc2c(F)ccc(OCCNCc3ccsc3)c21` (stereo not drawn) [Example 1], on dopamine D-2 receptor, the Ratio is listed as 91 and the IC50 was 135 nM. This compound gave an IC50 at dopamine autoreceptor of 0.00149 µM.
For `O=C1Cc2c(OCCNCc3cccs3)ccc(Cl)c2N1` [Example 2a, 4-[2-Thien-2-ylmethyl)aminoethoxyl-7-chloro-1,3-dihydro-indol-2-one] the same measures were 30.5, 33.5 nM and 0.0011 µM.
The like results for `O=C1Cc2c(OCCNCc3ccsc3)ccc(Cl)c2N1` [Example 2b, 4-[2-(Thien-3-ylmethyl)aminoethoxy]-7-chloro 1,3-dihydro-indol-2-one] were, in that order, 37.7, 26.7 nM and 0.00071 µM.
The like results for `O=C1Cc2c(OCCNCc3ccsc3)ccc(F)c2N1` [Example 3a] were, in that order, 128, 323 nM and 0.00253 µM.
Take `O=C1Cc2c(OCCNCc3cccs3)ccc(F)c2N1` [Example 3b, 4-[2-(Thien-2-ylmethyl)aminoethoxy]-7-fluoro-1,3-dihydro-indol-2-one]: the Ratio on dopamine D-2 receptor is on record as 293. Further, the IC50 at dopamine D-2 receptor came out at 398 nM; at dopamine autoreceptor, 0.00136 µM.
